Values joined by “and” are separate entries in the source; they are usually repeats but may differ in a detail not shown here. Identical values can stand only once.
Assay: xn = mol fraction of the nth substance listed

C1COCCO1 + CCO
viscosity [mPa·s]
Conditions	293.15 K	298.15 K	303.15 K	308.15 K
101 kPa, x1 = 0.0584	–	0.992	–	–
101 kPa, x1 = 0.1156	–	0.938	–	–
101 kPa, x1 = 0.1834	–	0.884	–	–
101 kPa, x1 = 0.2678	–	0.86	–	–
101 kPa, x1 = 0.3	–	0.9243	–	–
101 kPa, x1 = 0.3438	–	0.849	–	–
101 kPa, x1 = 0.4473	–	0.863	–	–
101 kPa, x1 = 0.5589	–	0.885	–	–
101 kPa, x1 = 0.689	–	0.933	–	–
101 kPa, x1 = 0.8264	–	1.029	–	–
101 kPa, x2 = 0.1798	–	1.027	0.9544	0.8897
101 kPa, x2 = 0.324	–	0.9634	0.8928	0.8361
101 kPa, x2 = 0.4539	–	0.9317	0.8654	0.8124
101 kPa, x2 = 0.5608	–	0.9336	0.8661	0.8072
101 kPa, x2 = 0.6591	–	0.9547	0.8825	0.8181
101 kPa, x2 = 0.7972	–	1.025	0.9451	0.8639
101 kPa, x2 = 0.8858	–	1.102	1.008	0.919
101 kPa, x2 = 0.9427	–	1.179	1.068	0.9697
101.33 kPa, x1 = 0.0703	1.069	0.96	0.8879	0.8147
101.33 kPa, x1 = 0.1455	0.9889	0.8885	0.8285	0.7595
101.33 kPa, x1 = 0.2259	0.9468	0.8529	0.7902	0.7308
101.33 kPa, x1 = 0.3126	0.9216	0.8387	0.7727	0.7174
101.33 kPa, x1 = 0.4045	0.9225	0.8391	0.7751	0.7182
101.33 kPa, x1 = 0.5051	0.9277	0.8469	0.7819	0.7278
101.33 kPa, x1 = 0.6163	0.9582	0.8803	0.8165	0.7622
101.33 kPa, x1 = 0.7297	1.029	0.9425	0.8647	0.8101
101.33 kPa, x1 = 0.86	1.135	1.044	0.9699	0.8938
101.33 kPa, x2 = 0.2101	–	–	0.984	–
101.33 kPa, x2 = 0.5822	–	–	0.825	–
101.33 kPa, x2 = 0.7056	–	–	0.798	–
101.33 kPa, x2 = 0.9653	–	–	0.927	–

C1COCCO1 + CCCCCC
101 kPa
Conditions	viscosity [mPa·s]
303.15 K, x1 = 0.111	0.297
303.15 K, x1 = 0.1961	0.317
303.15 K, x1 = 0.3001	0.348
303.15 K, x1 = 0.4033	0.389
303.15 K, x1 = 0.4962	0.436
303.15 K, x1 = 0.5966	0.498
303.15 K, x1 = 0.7169	0.601
303.15 K, x1 = 0.8008	0.7
303.15 K, x1 = 0.8988	0.854
308.15 K, x1 = 0.1153	0.301
308.15 K, x1 = 0.2223	0.338
308.15 K, x1 = 0.3421	0.388
308.15 K, x1 = 0.4004	0.415
308.15 K, x1 = 0.5204	0.481
308.15 K, x1 = 0.7211	0.644
308.15 K, x1 = 0.8214	0.75
308.15 K, x1 = 0.9211	0.879
313.15 K, x1 = 0.1153	0.287
313.15 K, x1 = 0.2223	0.321
313.15 K, x1 = 0.3421	0.367
313.15 K, x1 = 0.4004	0.391
313.15 K, x1 = 0.5204	0.454
313.15 K, x1 = 0.6232	0.521
313.15 K, x1 = 0.7211	0.603
313.15 K, x1 = 0.8214	0.704
313.15 K, x1 = 0.9211	0.824
318.15 K, x1 = 0.1153	0.275
318.15 K, x1 = 0.2223	0.307
318.15 K, x1 = 0.3421	0.349
318.15 K, x1 = 0.4004	0.373
318.15 K, x1 = 0.5204	0.431
318.15 K, x1 = 0.6232	0.494
318.15 K, x1 = 0.7211	0.568
318.15 K, x1 = 0.8214	0.659
318.15 K, x1 = 0.9211	0.769

Brc1ccccc1 + C1CCOCC1
viscosity [mPa·s], 101 kPa
Conditions	x2 = 0.097	x2 = 0.1996	x2 = 0.3053	x2 = 0.4011	x2 = 0.5073
298.15 K	1.05	1.037	1.021	1	0.9753
313.15 K	0.8682	0.8547	0.8377	0.8212	0.7989

C1COCCO1 + Cc1ccccc1
101 kPa
Conditions	viscosity
293.15 K, x1 = 0.6506	1.045 mPa·s
303.15 K, x1 = 0.0992	0.556 mPa·s
303.15 K, x1 = 0.1216	0.5749 mPa·s
303.15 K, x1 = 0.122	0.573 mPa·s
303.15 K, x1 = 0.1993	0.591 mPa·s
303.15 K, x1 = 0.2367	0.6251 mPa·s
303.15 K, x1 = 0.237	0.622 mPa·s
303.15 K, x1 = 0.2925	0.628 mPa·s
303.15 K, x1 = 0.347	0.675 mPa·s
303.15 K, x1 = 0.3999	0.676 mPa·s
303.15 K, x1 = 0.453	0.7299 mPa·s and 0.729 mPa·s
303.15 K, x1 = 0.4961	0.723 mPa·s
303.15 K, x1 = 0.554	0.779 mPa·s
303.15 K, x1 = 0.5541	0.781 mPa·s
303.15 K, x1 = 0.5981	0.778 mPa·s
303.15 K, x1 = 0.65	0.831 mPa·s
303.15 K, x1 = 0.6504	0.8368 mPa·s
303.15 K, x1 = 0.6985	0.843 mPa·s
303.15 K, x1 = 0.7438	0.8912 mPa·s
303.15 K, x1 = 0.744	0.882 mPa·s
303.15 K, x1 = 0.8009	0.918 mPa·s
303.15 K, x1 = 0.8327	0.9416 mPa·s
303.15 K, x1 = 0.833	0.939 mPa·s
303.15 K, x1 = 0.8967	0.998 mPa·s
303.15 K, x1 = 0.918	0.9965 mPa·s and 0.995 mPa·s
308.15 K, x1 = 0.1	0.533 mPa·s
308.15 K, x1 = 0.3	0.593 mPa·s
308.15 K, x1 = 0.4	0.629 mPa·s
308.15 K, x1 = 0.5	0.669 mPa·s
308.15 K, x1 = 0.6	0.709 mPa·s
308.15 K, x1 = 0.7	0.764 mPa·s
308.15 K, x1 = 0.9	0.893 mPa·s

CC(C)[N+](=O)[O-] + Cc1ccc(C)cc1
293.15 K, 101.33 kPa
Conditions	viscosity [mPa·s]
x1 = 0.1052	0.64
x1 = 0.2079	0.636
x1 = 0.2945	0.638
x1 = 0.3973	0.644
x1 = 0.4976	0.651
x1 = 0.6039	0.664
x1 = 0.7089	0.678
x1 = 0.8008	0.699
x1 = 0.8925	0.727

C1COCCO1 + OCCO
viscosity [mPa·s], 100 kPa
Conditions	x1 = 0.1014	x1 = 0.2054	x1 = 0.2968	x1 = 0.3998	x1 = 0.4966	x1 = 0.5992	x1 = 0.7005	x1 = 0.7985	x1 = 0.8969
293.15 K	15.53	11.26	8.022	5.534	3.77	2.758	2.223	1.737	1.405
298.15 K	12.4	9.243	6.602	4.535	3.152	2.436	1.983	1.569	1.329
303.15 K	10.21	7.423	5.425	3.682	–	2.169	1.78	1.401	–

COC(=O)CC(=O)OC + Cc1ccccc1
303.15 K, 101 kPa
Conditions	viscosity [mPa·s]
x1 = 0.0934	0.5584
x1 = 0.1891	0.6061
x1 = 0.2852	0.6706
x1 = 0.3836	0.7507
x1 = 0.4821	0.8493
x1 = 0.5831	0.9701
x1 = 0.6852	1.122
x1 = 0.7891	1.307
x1 = 0.8932	1.522

OCC(F)(F)F + O
Conditions	viscosity [mPa·s]
298 K, 101.3 kPa, x1 = 0.026	1.152
298 K, 101.3 kPa, x1 = 0.0503	1.358
298 K, 101.3 kPa, x1 = 0.075	1.528
298 K, 101.3 kPa, x1 = 0.0984	1.634
298 K, 101.3 kPa, x1 = 0.1984	1.882
298 K, 101.3 kPa, x1 = 0.3016	1.876
298 K, 101.3 kPa, x1 = 0.4012	1.819
298 K, 101.3 kPa, x1 = 0.5015	1.757
298 K, 101.3 kPa, x1 = 0.5993	1.713
298 K, 101.3 kPa, x1 = 0.6501	1.656
298 K, 101.3 kPa, x1 = 0.8029	1.651
298 K, 101.3 kPa, x1 = 0.9024	1.673
298.15 K, 100 kPa, x1 = 0.1022	1.608
298.15 K, 100 kPa, x1 = 0.2084	1.828
298.15 K, 100 kPa, x1 = 0.3227	1.802
298.15 K, 100 kPa, x1 = 0.4087	1.743
298.15 K, 100 kPa, x1 = 0.5727	1.665
298.15 K, 100 kPa, x1 = 0.7111	1.621
298.15 K, 100 kPa, x1 = 0.9104	1.64
298.15 K, 101 kPa, x1 = 0.0196	1.061
298.15 K, 101 kPa, x1 = 0.04313	1.271
298.15 K, 101 kPa, x1 = 0.07168	1.446
298.15 K, 101 kPa, x1 = 0.1072	1.642
298.15 K, 101 kPa, x1 = 0.1525	1.773
298.15 K, 101 kPa, x1 = 0.2128	1.852
298.15 K, 101 kPa, x1 = 0.296	1.865
298.15 K, 101 kPa, x1 = 0.4193	1.782
298.15 K, 101 kPa, x1 = 0.6192	1.667
303 K, 101.3 kPa, x1 = 0.026	0.999
303 K, 101.3 kPa, x1 = 0.0503	1.163
303 K, 101.3 kPa, x1 = 0.075	1.312
303 K, 101.3 kPa, x1 = 0.0984	1.395
303 K, 101.3 kPa, x1 = 0.1984	1.588
303 K, 101.3 kPa, x1 = 0.3016	1.609
303 K, 101.3 kPa, x1 = 0.4012	1.566
303 K, 101.3 kPa, x1 = 0.5015	1.523
303 K, 101.3 kPa, x1 = 0.5993	1.492
303 K, 101.3 kPa, x1 = 0.6501	1.45
303 K, 101.3 kPa, x1 = 0.8029	1.444
303 K, 101.3 kPa, x1 = 0.9024	1.468
308 K, 101.3 kPa, x1 = 0.026	0.887
308 K, 101.3 kPa, x1 = 0.0503	1.017
308 K, 101.3 kPa, x1 = 0.075	1.138
308 K, 101.3 kPa, x1 = 0.0984	1.214
308 K, 101.3 kPa, x1 = 0.1984	1.398
308 K, 101.3 kPa, x1 = 0.3016	1.406
308 K, 101.3 kPa, x1 = 0.4012	1.375
308 K, 101.3 kPa, x1 = 0.5015	1.338
308 K, 101.3 kPa, x1 = 0.5993	1.305
308 K, 101.3 kPa, x1 = 0.6501	1.284
308 K, 101.3 kPa, x1 = 0.8029	1.278
308 K, 101.3 kPa, x1 = 0.9024	1.296
313 K, 101.3 kPa, x1 = 0.026	0.791
313 K, 101.3 kPa, x1 = 0.0503	0.899
313 K, 101.3 kPa, x1 = 0.075	1.002
313 K, 101.3 kPa, x1 = 0.0984	1.065
313 K, 101.3 kPa, x1 = 0.1984	1.223
313 K, 101.3 kPa, x1 = 0.3016	1.235
313 K, 101.3 kPa, x1 = 0.4012	1.211
313 K, 101.3 kPa, x1 = 0.5015	1.179
313 K, 101.3 kPa, x1 = 0.5993	1.159
313 K, 101.3 kPa, x1 = 0.6501	1.145
313 K, 101.3 kPa, x1 = 0.8029	1.136
313 K, 101.3 kPa, x1 = 0.9024	1.152
323.15 K, 100 kPa, x1 = 0.1022	0.85
323.15 K, 100 kPa, x1 = 0.2084	0.944
323.15 K, 100 kPa, x1 = 0.3227	0.949
323.15 K, 100 kPa, x1 = 0.4087	0.94
323.15 K, 100 kPa, x1 = 0.5727	0.911
323.15 K, 100 kPa, x1 = 0.7111	0.912
323.15 K, 100 kPa, x1 = 0.9104	0.935
